Test results taken from the supplement of paper PMC13207355.

Experiments:
Conditions in all cases: exposure time: 72 h
E13 [1] = patient-derived glioblastoma stem cells of classical subtype; assay: surviving fraction (nuclei count normalised to DMSO); higher = more cells surviving (less toxic)
E21 [2] = patient-derived glioblastoma stem cells of mesenchymal subtype; assay: as above
E28 [3] = patient-derived glioblastoma stem cells of classical subtype; assay: as above
E31 [4] = patient-derived glioblastoma stem cells of proneural subtype; assay: as above
E34 [5] = patient-derived glioblastoma stem cells of proneural subtype; assay: as above
E57 [6] = patient-derived glioblastoma stem cells of mesenchymal subtype; assay: as above
FT3469 [7] = normal neural stem cell line; assay: as above
E13 [8] = assay: phenotypic distance (Euclidean, principal components) from DMSO controls (arbitrary units); higher = stronger morphological change
E21 [9] = assay: as above
E28 [10] = assay: as above
E31 [11] = assay: as above
E34 [12] = assay: as above
E57 [13] = assay: as above
FT3469 [14] = assay: as above
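Wherever phenotypic distance (Euclidean, principal components) from DMSO controls is given: cell Painting imaging in 384-well plates, CellProfiler features reduced to at least 20 principal components, Euclidean distance versus same-plate DMSO vehicle wells (0.1% v/v), median over six images per well.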
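Wherever surviving fraction (nuclei count normalised to DMSO) is given: nuclei counted by high-content imaging of Hoechst-stained cells in laminin-coated 384-well plates, relative to 0.1% DMSO vehicle wells, with staurosporine as cell-death control.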

C[C@H](Cc1cc2c(c(C(N)=O)c1)N(CCCO)CC2)NCCOc1ccccc1OCC(F)(F)F [Silodosin]
Conditions	phenotypic distance	surviving fraction
E13 [1], 4.1 nM	–	0.879
E13 [1], 12.3 nM	–	0.889
E13 [1], 37 nM	–	0.914
E13 [1], 111.1 nM	–	0.899
E13 [1], 333.3 nM	–	0.859
E13 [1], 1000 nM	–	0.9
E13 [1], 3000 nM	–	0.93
E13 [8], 4.1 nM	0.445	–
E13 [8], 12.3 nM	0.872	–
E13 [8], 37 nM	0.863	–
E13 [8], 111.1 nM	0.966	–
E13 [8], 333.3 nM	0.915	–
E13 [8], 1000 nM	0.684	–
E13 [8], 3000 nM	0.641	–
E21 [2], 4.1 nM	–	0.872
E21 [2], 12.3 nM	–	0.94
E21 [2], 37 nM	–	0.885
E21 [2], 111.1 nM	–	0.958
E21 [2], 333.3 nM	–	0.998
E21 [2], 1000 nM	–	1.04
E21 [2], 3000 nM	–	1.03
E21 [9], 4.1 nM	2.39	–
E21 [9], 12.3 nM	1.7	–
E21 [9], 37 nM	1.04	–
E21 [9], 111.1 nM	0.791	–
E21 [9], 333.3 nM	0.998	–
E21 [9], 1000 nM	0.539	–
E21 [9], 3000 nM	1.04	–
E28 [3], 4.1 nM	–	0.896
E28 [3], 12.3 nM	–	0.951
E28 [3], 37 nM	–	0.935
E28 [3], 111.1 nM	–	0.781
E28 [3], 333.3 nM	–	0.941
E28 [3], 1000 nM	–	0.892
E28 [3], 3000 nM	–	0.877
E28 [10], 4.1 nM	0.716	–
E28 [10], 12.3 nM	0.594	–
E28 [10], 37 nM	0.634	–
E28 [10], 111.1 nM	0.795	–
E28 [10], 333.3 nM	0.798	–
E28 [10], 1000 nM	0.495	–
E28 [10], 3000 nM	0.823	–
E31 [4], 4.1 nM	–	1.03
E31 [4], 12.3 nM	–	0.873
E31 [4], 37 nM	–	0.879
E31 [4], 111.1 nM	–	0.922
E31 [4], 333.3 nM	–	0.967
E31 [4], 1000 nM	–	0.962
E31 [4], 3000 nM	–	0.852
E31 [11], 4.1 nM	0.63	–
E31 [11], 12.3 nM	0.581	–
E31 [11], 37 nM	1.01	–
E31 [11], 111.1 nM	0.959	–
E31 [11], 333.3 nM	0.426	–
E31 [11], 1000 nM	0.534	–
E31 [11], 3000 nM	1.14	–
E34 [5], 4.1 nM	–	0.923
E34 [5], 12.3 nM	–	0.923
E34 [5], 37 nM	–	0.82
E34 [5], 111.1 nM	–	0.869
E34 [5], 333.3 nM	–	0.932
E34 [5], 1000 nM	–	0.863
E34 [5], 3000 nM	–	0.802
E34 [12], 4.1 nM	1.06	–
E34 [12], 12.3 nM	0.76	–
E34 [12], 37 nM	0.492	–
E34 [12], 111.1 nM	2.26	–
E34 [12], 333.3 nM	0.348	–
E34 [12], 1000 nM	1.18	–
E34 [12], 3000 nM	1.12	–
E57 [6], 4.1 nM	–	0.935
E57 [6], 12.3 nM	–	0.844
E57 [6], 37 nM	–	0.878
E57 [6], 111.1 nM	–	0.843
E57 [6], 333.3 nM	–	0.955
E57 [6], 1000 nM	–	0.911
E57 [6], 3000 nM	–	0.792
E57 [13], 4.1 nM	0.807	–
E57 [13], 12.3 nM	1.04	–
E57 [13], 37 nM	0.711	–
E57 [13], 111.1 nM	1.62	–
E57 [13], 333.3 nM	0.512	–
E57 [13], 1000 nM	0.794	–
E57 [13], 3000 nM	1.7	–
FT3469 [7], 4.1 nM	–	0.874
FT3469 [7], 12.3 nM	–	0.91
FT3469 [7], 37 nM	–	1.05
FT3469 [7], 111.1 nM	–	0.959
FT3469 [7], 333.3 nM	–	0.939
FT3469 [7], 1000 nM	–	0.815
FT3469 [7], 3000 nM	–	0.925
FT3469 [14], 4.1 nM	1.28	–
FT3469 [14], 12.3 nM	0.608	–
FT3469 [14], 37 nM	0.869	–
FT3469 [14], 111.1 nM	0.648	–
FT3469 [14], 333.3 nM	1.02	–
FT3469 [14], 1000 nM	0.845	–
FT3469 [14], 3000 nM	1.05	–
